Measurements reported in patent US8796329B2, “Method for controlling angiogenesis in animals” (Ziopharm Oncology, Inc., priority 2006, dated 2014).
“And” between values parts separate entries of the source, which are not always exact repeats. Identical values can stand only once.

Assays:
P388 murine leukemia = experiment: Response of ip implanted P388 murine leukemia to ip and po administration; assay type: in vivo, mice; settings: for treatment-related deaths / increase in lifespan (ILS) / median day of death: qld×9; for increase in lifespan (ILS): p=0.000 vs vehicle; for median day of death: vehicle control 11.5
Source text: Mice were implanted ip with one million cells of P388 murine leukemia using a 23-gauge needle. The P388 tumor line was maintained as an in vivo passage. The day of tumor implantation was designated as day 0, with treatment beginning on day 1 following tumor implantation. A sufficient number of mice were implanted so that animals with body weights in a range as narrow as possible were selected for the trial.
The compound of formula (II) was formulated in saline on the first day of treatment (day 1) at a concentration of 40 mg/mL. This solution was then diluted to the lower dosing concentrations of 30, 20, and 5 mg/mL. Enough of the compound of formula (II) was prepared on day 1 for the entire dosing period. Each dosing solution was then aliquoted for daily treatments, frozen at −20° C., and thawed on each day of injection. All injections were administered on the basis of exact body weight with the injection volume being 0.2 mL/10 g body weight.
The study consisted of four treatment groups of eight mice per group and one vehicle-treated control group with ten mice, for a total of 42 mice on the first day of treatment. The study design called for the compound of formula (II) to be administered once a day for nine consecutive days (qld×9) by oral gavage at dosages of 800, 600, and 400 mg/kg/dose and by ip injection at a dosage of 100 mg/kg/dose. The control group (group 1) was treated with the vehicle (saline), which was administered po on a qld×9 injection schedule.
The study was terminated 17 days after tumor implantation. Any animal that became moribund was euthanized prior to study termination.
Number of nonspecific deaths, median days of death, and the increase in lifespan based on the median day of death and expressed as a percentage (% ILS).
The individual animals' survival time was used as the endpoint in a life tables analysis (stratified Kaplan-Meier estimation followed by the Mantel-Haenszel log-rank test) in order to statistically compare the survival data between groups.

LL47 (Fibroblast) = experiment: CellTiter-Glo Luminescent Cell Viability Assay, LL47; assay type: cell-based; settings: Homo sapiens
Method: (§1) CellTiter-Glo Luminescent Cell Viability Assay (Promega Corporation) is based on quantification of ATP levels in cell cultures. The amount of ATP produced in cell culture reflects the number of viable cells. […] HUVECs and LL47 cells were seeded in 96-well plates in their growth medium. After 24 hours, various doses of the compound of formula (II) were added to both cultures side by side, having six replicates for each dose. At different treatment time points, CellTiter-Glo reagent were added to the cultures following the manufacturer's instructions; luminescence signals were measured with an EnVision™ Multilabel Reader (Perkin Elmer, Wellesley, Mass.) The blank control groups were given saline vehicle only, and positive control groups were given 10 μM T-araC (provided by Southern). Data was analyzed for the mean and standard deviation for each treatment condition. IC50 values of the compound of formula (II) against HUVEC and LL47 cell cultures were determined based on the dose response curves as shown in FIG. 1. There were several test drug concentrations with three treatment time points (2, 4, and 6 days). For the 6-day assay experiment, the culture media with different test concentration treatments was exchanged at Day 4.

HUVEC (Endothelia) [1] = experiment: 3H-thymidine incorporation assay for HUVEC; assay type: cell-based; settings: Homo sapiens
Method: HUVEC cultures were seeded and treated in 96-well plates, as described above for the CellTiter-Glo viability assay. After treatment of HUVEC cultures with the compound of formula (II), 96-well plates were pulsed with 1 μCi of ^3H-thymidine for the final 6-18 hours of culture and then harvested with a semiautomatic cell harvester onto filters that bind the DNA. Samples were counted in a PerkinElmer Microbeta scintillation and luminescence counter (Trilux) to determine the amount of 3H-TdR uptake. The data was then transferred and processed using an Excel spreadsheet program to provide for the mean and standard deviation for % of control values. The results were analyzed by calculating IC50 values and including a table showing % of control values for each compound tested. There were several test drug concentrations with three treatment time points (2, 4, and 6 days) and 6 replicates for each test concentration as shown in FIG. 2. For the 6-day assay experiment, the culture media with different test concentration treatments was exchanged at Day 4.

[2] = system: blood vessel density in Matrigel plugs (VEGF, FGFb, heparin as angiogenic stimuli); experiment: Matrigel Plug in vivo assay, intravenous dosing; parameters: species or system C57BL/6 mice
Method: Female C57BL/6 mice around 10-weeks old and Matrigel Matrix High Concentration (from Becton Dickinson) mixed with 50 ng/mL VEGF, 50 ng/mL FGFb, and heparin 3 ng/mL as angiogenic stimuli were used for the Matrigel Plug experiments. There were two groups of mice, five mice in each group, with one group serving as a control and the second group expected to be treated once daily for 9 days with a compound of formula II at 100 mg/kg/dose (0.2 mL/10 g of body weight) by intravenous (i.v.) injection. The control group received oral saline as a vehicle. Each mouse received two Matrigel plugs. On Day 0, 500 μL Matrigel at 4° C. was subcutaneously injected to each side of the mouse, wherein the injection area was shaved. To increase the contact area of injected Matrigel into subcutaneous tissues and form a round shape plug, a wide subcutaneous pocket was formed by swaying the needle point right and left after a routine subcutaneous insertion. The injection was done rapidly with an appropriate size needle (21 G-25 G) to ensure the entire contents of the syringe were delivered in one plug. The injected Matrigel rapidly formed a single solid gel plug. […] Plugs from each group were collected at Day 12. The mice were euthanized and the mouse skin was pulled back to expose the plug. The plugs were dissected out and fixed in 10% formalin for histological analysis. Sections of 5 μm from paraffin-embedded plugs were stained with H&E. Blood vessel density in a cross sectional area of each Matrigel plug was analyzed using Image Pro-Plus software. For each group of mice, at least six Matrigel plugs were quantitatively analyzed to assess any statistical significant difference of microvessel density between groups. The quantitation of microblood vessel density using a compound of formula (II) is shown below.

[3] = system: blood vessel density in Matrigel plugs; experiment: Matrigel Plug in vivo assay, oral dosing; settings: 350 mg/kg/dose oral, once daily for 9 days, plugs Day 14, male CD2F1 mice
Method: Male CD2F1 mice were used for the Matrigel Plug experiment. There were two groups of mice, five mice in each group, with one group serving as a control and the second group was treated once daily for 9 days with a compound of formula II at 350 mg/kg/dose (0.2 mL/10 g of body weight) by oral administration in a saline solution. The control group received oral saline as a vehicle. Each mouse received two Matrigel plugs. On Day 0, 500 μL Matrigel at 4° C. was subcutaneously injected to each side of the mouse, wherein the injection area was shaved. The injection was done rapidly with an appropriate size needle (21 G-25 G) to ensure the entire contents of the syringe were delivered in one plug. The injected Matrigel rapidly formed a single solid gel plug. On Day 14, the mice were euthanized and the mouse skin was pulled back to expose the plug. The plugs were dissected out and fixed in 10% formalin for histological analysis. Sections of 5 μm from paraffin-embedded plugs were stained with haematoxylin and eosin (H&E) stain. Blood vessel density in a cross sectional area of each Matrigel plug was analyzed using Image Pro-Plus software. Each of the plugs was fixed in 10% formalin.

HUVEC (Endothelia) [4] = experiment: CellTiter-Glo Luminescent Cell Viability Assay, HUVEC; assay type: cell-based; settings: Homo sapiens
Method: as §1

## C[As](C)SCC(NC(=O)CCC(N)C(=O)O)C(=O)NCC(=O)O (stereo not drawn) [Compound of Formula (II)]
P388 murine leukemia; 100 mg/kg/dose ip
  increase in lifespan, in words: tolerated and resulted in a minimal increase in lifespan
  treatment-related deaths: tolerated without treatment-related deaths
  increase in lifespan (ILS): 26%
  median day of death: 14.5 days
P388 murine leukemia; 400 mg/kg/dose po
  increase in lifespan, in words: tolerated and elicited a minimal increase in lifespan
  treatment-related deaths: No treatment-related deaths
  increase in lifespan (ILS): 30%
  median day of death: 15.0 days
LL47 (Fibroblast); 48 h, Day 2
  IC50: < 5 mM
LL47 (Fibroblast); 96 h, Day 4
  IC50: < 2 mM
LL47 (Fibroblast); 144 h, Day 6
  IC50: < 1.5 mM
HUVEC (Endothelia) [1]; Day 2
  IC50: < 0.1 mM
HUVEC (Endothelia) [1]; Day 4
  IC50: < 1 mM
HUVEC (Endothelia) [1]; Day 6
  IC50: < 0.5 mM
[2]; 100 mg/kg/dose i.v. once daily, doses 6 and 8 skipped
  toxicity to C57BL/6 mice: higher than expected toxicity
[2]; 100 mg/kg/dose i.v., 7 doses, plugs collected Day 12, female C57BL/6 mice, animals #1-#4
  microblood vessel density, individual animal: 3 and 2 (2×) and 0
[2]; 100 mg/kg/dose i.v., 7 doses, plugs collected Day 12, female C57BL/6 mice, control average 48.8
  microblood vessel density, Average: 1.75
[3]
  reduction of angiogenesis compared to the control: effective in reducing angiogenesis
HUVEC (Endothelia) [4]; 48 h, Day 2
  IC50: < 1.5 mM
HUVEC (Endothelia) [4]; 96 h, Day 4
  IC50: < 1 mM
HUVEC (Endothelia) [4]; 144 h, Day 6
  IC50: < 0.5 mM
